Data on 23 molecules can be found in ChEMBL document CHEMBL1143537, “Discovery, synthesis and biological evaluation of novel glucokinase activators” (Bioorg Med Chem Lett, 2005).

Tested on in the first series: not listed separately
The series can be described thus: Clearance value of the compound. The series is classed as ADME, organism-based. Conditions: rat, in vivo.
Molecule `CC(C)Oc1cc(OCCc2ccsc2)cc(C(=O)Nc2ccc(C(=O)O)cn2)c1` displayed a clearance of 3.8 mL/min/kg.

Tested on in the next series: not listed separately
The series can be described thus: Volume of distribution of the compound. In kind it is ADME. Conditions: rat; read-out: Activity.
As to `CC(C)Oc1cc(OCCc2ccsc2)cc(C(=O)Nc2ccc(C(=O)O)cn2)c1`, the Vd worked out at 0.3 L/kg.

Tested on in a further series: not listed separately
Put plainly: Half life value of the compound. The conditions noted are these: rat. The series is classed as ADME.
On to `CC(C)Oc1cc(OCCc2ccsc2)cc(C(=O)Nc2ccc(C(=O)O)cn2)c1`, for which the half-life is 54 min.

Another series has as its target T1, Hexokinase-4 (Homo sapiens, UniProt P35557).
T1 sequence (P35557 whole entry): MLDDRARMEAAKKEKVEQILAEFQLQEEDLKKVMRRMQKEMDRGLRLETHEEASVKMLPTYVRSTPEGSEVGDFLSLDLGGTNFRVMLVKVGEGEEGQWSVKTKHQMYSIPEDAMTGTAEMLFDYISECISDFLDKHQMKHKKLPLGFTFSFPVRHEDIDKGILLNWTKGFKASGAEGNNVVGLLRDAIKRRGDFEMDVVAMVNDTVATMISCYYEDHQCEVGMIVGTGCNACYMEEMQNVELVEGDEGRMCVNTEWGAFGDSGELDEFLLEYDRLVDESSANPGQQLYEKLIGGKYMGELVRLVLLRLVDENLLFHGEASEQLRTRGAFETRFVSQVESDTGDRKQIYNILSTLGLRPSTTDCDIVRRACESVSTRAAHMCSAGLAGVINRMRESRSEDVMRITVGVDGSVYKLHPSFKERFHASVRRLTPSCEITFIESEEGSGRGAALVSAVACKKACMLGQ
Put plainly: Potency in Glucokinase activation assay.
Details: not given
Regarding `CC(C)Oc1cc(OCc2ccccc2F)cc(C(=O)Nc2ccc(C(=O)O)cn2)c1`, the EC50 was found to be 100 nM. `CSc1ccc(OCc2ccccc2)c(/C=C/c2ccc(C(=O)O)cn2)c1` yielded an EC50 of 3200 nM. Same read-out and setting: then `COc1cc(OC)cc(OCc2ccc(C(=O)O)cn2)c1`, with greater than 10000 nM; and `O=C(O)c1ccc(OCc2cc(OCc3ccccc3)cc(OCc3ccccc3)c2)nc1`, with greater than 10000 nM. On the same count and under the same terms, then `O=C(O)c1ccc(NC(=O)c2cccc(OCc3ccccc3Cl)c2OCc2ccccc2Cl)nc1`, with greater than 10000 nM; and `CC(C)Oc1cc(OCCc2ccncc2)cc(C(=O)Nc2ccc(C(=O)O)cn2)c1`, with 1780 nM; and `CC(C)Oc1cc(OCCc2cccnc2)cc(C(=O)Nc2ccc(C(=O)O)cn2)c1`, with 1260 nM. On to `O=C(O)c1ccc(NC(=O)c2cc(OCc3ccccc3)cc(OCc3ccccc3)c2)nc1`, for which it took 400 nM to reach a half-maximal effect (EC50). `CC(C)Oc1cc(OCCCc2ccccc2)cc(C(=O)Nc2ccc(C(=O)O)cn2)c1` came in with an EC50 of 420 nM. Consider `O=C(O)c1ccc(CCc2cc(OCc3ccccc3)cc(OCc3ccccc3)c2)nc1`, for which the EC50 was greater than 10000 nM. The same measure, in the same setting: then `CC(C)Oc1cc(OCC2CCCC2)cc(C(=O)Nc2ccc(C(=O)O)cn2)c1`, with 650 nM.

`CC(C)Oc1cc(OCCC2CCOCC2)cc(C(=O)Nc2ccc(C(=O)O)cn2)c1` gave an EC50 of 1330 nM. Same read-out and setting: next, `CC(C)Oc1cc(OCc2ccccc2)cc(C(=O)Nc2ccc(C(=O)O)cn2)c1`: 290 nM; `O=C(O)c1ccc(C(=O)Nc2cc(OCc3ccccc3)cc(OCc3ccccc3)c2)nc1`: greater than 10000 nM; `O=C(O)c1ccc(NC(=O)c2ccccc2OCc2ccccc2)nc1`: greater than 10000 nM. Still for that read-out and setting: next, `CC(C)Oc1cc(OCCC2CCCC2)cc(C(=O)Nc2ccc(C(=O)O)cn2)c1`: 170 nM. On the same count and under the same terms, next, `O=C(O)c1ccc(NC(=O)c2cccc(OCc3ccccc3Cl)c2)nc1`: 910 nM. For the molecule `CSc1ccc(OCc2ccccc2)c(C(=O)Nc2ccc(C(=O)O)cn2)c1`, the response was half-maximal at 4220 nM (EC50). As for `CC(C)Oc1cc(OCCc2ccccc2)cc(C(=O)Nc2ccc(C(=O)O)cn2)c1`, it took 130 nM to reach a half-maximal effect (EC50). Same read-out and setting: next, `CSc1ccc(OCc2ccccc2)c(NC(=O)c2ccc(C(=O)O)cn2)c1`: greater than 10000 nM; `O=C(O)c1ccc(NC(=O)c2cc(OCc3ccccc3F)cc(OCc3ccccc3F)c2)nc1`: 90 nM. The same measure, in the same setting: then `CC(C)COc1cc(OC(C)C)cc(C(=O)Nc2ccc(C(=O)O)cn2)c1`, with 570 nM.

By clearance is commonly meant the rate of elimination divided by the concentration. Usually half-life stands for how long it takes for the measured level to halve. A high value points to slow decline. In general, EC50 refers to the concentration that produces a half-maximal response. Higher therefore signals a less potent agent.
